Where two headings read alike, the source gives them in different places.
Experiments:
[1] = test system: T47D-KBluc cells; assay: cells; parameters: Emax: dose or concentration left out as unconfirmed
Protocol: T47D-KBluc cells were obtained from the ATCC and the protocol established by the depositing authors was followed. Cells were routinely grown in RPMI media (with 10% foetal calf serum (FCS)). For seven days prior to experiments, cells were maintained in low estrogen conditions by the use of pre-assay media (RPMI, 10% charcoal-dextran stripped FCS, no antibiotics). For experiments, cells were seeded in white polystyrene 96 well plates at a density of 10,000 cells/well and allowed to attach for 24 hours before removal of media, and application of test chemicals. Test chemicals were dissolved in ethanol to give stock solutions of millimolar concentrations. Test and control solutions were obtained by dilution of ethanolic stocks in dosing media (phenol red-free RPMI, 5% charcoal-dextran stripped FCS, no antibiotics), and in all cases the final concentration of ethanol was 0.5%. The positive control was 1 nM estradiol. Positive and vehicle controls were run as eight replicate wells per plate, and compounds were tested in a dilution series comprising eight concentrations, each concentration tested in triplicate. As recommended by Wilson et al. two additional controls were also included on each plate: 1) vehicle control plus an antiestrogen, ICI 182,780 (1 µM), and 2) positive control plus ICI 182,780 (1 µM). […] A crude measure of toxicity was provided by comparing values for treatments that were not positive, with the value of the vehicle control. […] 24 hours after application of test and control solutions, a volume of Steady-Glo assay reagent (Promega) equal to the volume of culture media was added and plates were incubated for ten minutes, with shaking, to allow for cell lysis. Plates were then loaded into a plate reader (FLUOstar Optima, BMG Labtech) and incubated for a further ten minutes in the dark, followed by measurement of luminescence. To reduce variation, the temperature of the plate reader chamber was maintained at 27°C throughout.
(§1) Experiments were performed on different days meaning that results for different dilution series and different batches of the test chemicals were obtained on different days. Each single chemical was tested in three or more independent experiments. Use of normalisation meant that data from different experiments could be reliably combined and compared, as discussed previously. Data was expressed relative to the positive control, rather than as fold change from the vehicle response, for two reasons.
Effect concentrations (ECx) were defined relative to the effects of the estradiol concentration used as the positive control, for example EC50 is the concentration producing an effect of 50% of the positive control (estradiol, 1 nM (ERLUX) or 25 nM (ESCREEN)).
(§2) Results from regression analysis for each test chemicals were used to predict the CA effect for fixed-ratio mixtures designed on 1) equi-effective concentrations (balanced design), 2) possible human serum levels (non-balanced design). The original mathematical formulation of CA that defines for a mixture composed of n components with concentration c1 of the first component, c2 of the second component, and cn for the n-th component a combination effect X is [drawing 1] (1) Here, ECX1, ECX1 …, ECXn are the concentrations of the individual components that on their own produce the same effect X as the mixture, [15] The quotients cn/ECXn are called toxic units and scale all compounds in the mixture relative to their toxicity. They can be interpreted as the contribution of the compound to the total mixture concentration that is expected to produce the mixture effect X. According to equation 1, a mixture effect for a pre-defined effect level X is described only implicitly.

[2] = test system: MCF-7 cells; assay: Estrogenicity assay, mitogenic endpoint (ESCREEN); parameters: Emax: dose or concentration left out as unconfirmed
Protocol: The ESCREEN assay was performed using cloned MCF-7 cells (described in [6], gifted from A. Soto, Boston) and the established ESCREEN method was followed using an adapted 96-well format. Cells were cultured in DMEM (5% FCS). For experiments, cells were seeded in clear polystyrene 96 well plates at a density of 2,500 cells/well and allowed to attach for 24 hours before washing with rinse media (phenol red-free DMEM, no supplements). […] Test chemicals were dissolved in ethanol to give stock solutions of millimolar concentrations. Test and control solutions were diluted prior to application in dosing media (phenol red free DMEM, 10% charcoal-dextran stripped FCS). The final concentration of ethanol was 0.5% in test and control wells. […] At all stages, media removal from cells was carried out gently and in a controlled fashion by use of an electronic multichannel pipette set to the lowest speed possible. Controls were run as eight replicate wells per plate and compounds were tested in a dilution series comprising eight concentrations, each concentration tested in two replicate wells per plate. The plate layout was designed to reduce variation due to evaporation and spreading of test chemicals, and had been previously optimised in the laboratory. After application of test solutions, plates were incubated for 120 hours before fixation with 10% trichloroacetic acid and sulforhodamine B (SRB) staining to measure protein and allow the indirect quantification of cell number.
as §1
as §2, with “implicitly. However, if the individual concentrations ci are expressed as relative fractions pi to the total mixture concentration ECxMix, then equation 1 can be re-arranged to [drawing 2] (2) which allows the direct calculation of the mixture concentration that is expected to produce the mixture effect X. To form a prediction curve, equation 2 is iterated through for various effect levels resulting in sets of effects and their associated predicted mixture concentration which are then plotted to produce a graph of the effect prediction.” for “implicitly.”
Both equations 1 and 2 require knowledge of the concentration of each mixture component that on its own produces the effect magnitude under consideration. For this reason, these equations cannot be used for predicting mixture effects that exceed the maximal effect of the least efficacious component, because those effect concentrations cannot be defined.

[3] = Homo sapiens, read-out: Concentration Response Function θ^∧ max
[4] = Homo sapiens, MCF7, read-out: Concentration Response Function θ^∧ max
[5] = Homo sapiens, MCF7, read-out: Maxima at effect levels relative to that of estradiol (submaximal response)
[6] = Homo sapiens, read-out: Supramaximal response, of estradiol maxima

Molecule	EC10 ([1]; Homo sapiens, 24 h)	EC25 ([1]; Homo sapiens, 24 h)	Emax [1, 3]	EC10 ([2]; Homo sapiens, MCF7, 120 h)	EC25 ([2]; Homo sapiens, MCF7, 120 h)	Emax [2, 4]	Emax [2, 5]	Emax [1, 6]	EC10 ([1]; ERLUX, concentration producing 10% effect relative to positive control 1 nM estradiol, 24 hours)	EC25 ([1]; ERLUX, concentration producing 25% effect relative to positive control 1 nM estradiol, 24 hours)	Concentration Response Function θ^∧ max ([1]; ERLUX, estimated maximal model asymptote, effect relative to positive control (1 nM estradiol))	EC10 ([2]; ESCREEN, concentration provoking 10% effect relative to positive control 25 nM estradiol, 120 hours)	EC25 ([2]; ESCREEN, concentration provoking 25% effect relative to positive control 25 nM estradiol, 120 hours)	Concentration Response Function θ^∧ max ([2]; ESCREEN, estimated maximal model asymptote, effect relative to positive control (25 nM estradiol))
Cc1ccc(/C=C2/C(=O)C3(C)CCC2C3(C)C)cc1 (centres unmarked) [4MBC, 4-methylbenzylidene camphor]	1810 nM	5000 nM	82%	899 nM	2210 nM	63%	60 to 70%	–	–	–	–	–	–	–
Brc1ccc(Oc2c(Br)cc(Br)cc2Br)c(Br)c1 [BDE100, Brominated diphenyl ether-100]	5360 nM	12800 nM	172%	704 nM	2410 nM	71%	–	–	–	–	–	–	–	–
COc1ccc(C(=O)c2ccccc2)c(O)c1 [Benzophenone-3]	2270 nM	4610 nM	177%	1300 nM	4310 nM	63%	60 to 70%	150%	–	–	–	–	–	–
CC(C)(c1ccc(O)cc1)c1ccc(O)cc1 [Bisphenol A]	155 nM	258 nM	144%	45.2 nM	81.8 nM	121%	–	150%	–	–	–	–	–	–
CCCCOC(=O)c1ccc(O)cc1 [Butylparaben]	497 nM	881 nM	331%	571 nM	1320 nM	101%	–	300%	–	–	–	–	–	–
O=c1oc2cc(O)ccc2c2oc3cc(O)ccc3c12 [Coumestrol]	1.58 nM	3.42 nM	101%	1.56 nM	5 nM	131%	–	–	–	–	–	–	–	–
C#C[C@]1(O)CC[C@H]2[C@@H]3CCc4cc(O)ccc4[C@H]3CC[C@@]21C [EE2, Ethinyl estradiol, reference compound]	0.000651 nM	0.00132 nM	105%	0.000635 nM	0.00181 nM	114%	–	–	–	–	–	–	–	–
OC[C@H](Cc1cccc(O)c1)[C@H](CO)Cc1cccc(O)c1 [Enterodiol]	–	–	–	3850 nM	7450 nM	45%	–	–	–	–	–	–	–	–
O=C1OC[C@H](Cc2cccc(O)c2)[C@H]1Cc1cccc(O)c1 [Enterolactone]	3770 nM	8180 nM	104%	4150 nM	7220 nM	139%	–	–	–	–	–	–	–	–
C[C@]12CC[C@@H]3c4ccc(O)cc4CC[C@H]3[C@@H]1CC[C@@H]2O [Estradiol, reference compound]	0.000653 nM	0.00145 nM	123%	0.00112 nM	0.00312 nM	133%	–	–	–	–	–	–	–	–
c1ccc2c(c1)-c1cccc3cccc-2c13 [Fluoranthene]	60000 nM	–	16%	33900 nM	88500 nM	38%	–	–	–	–	–	–	–	–
CC1COCc2cc3c(cc21)C(C)(C)C(C)C3(C)C (centres unmarked) [Galaxolide, Galaxolide (HHCB)]	3930 nM	7730 nM	91%	5390 nM	12300 nM	69%	–	–	–	–	–	–	–	–
O=c1c(-c2ccc(O)cc2)coc2cc(O)cc(O)c12 [Genistein]	12.4 nM	19.6 nM	148%	4.61 nM	13.6 nM	93%	–	200%	–	–	–	–	–	–
COC(=O)c1ccc(O)cc1 [Methylparaben]	8140 nM	17100 nM	206%	7640 nM	18000 nM	79%	–	–	–	–	–	–	–	–
O=C1C[C@@H](c2ccc(O)cc2)Oc2cc(O)cc(O)c21 [Naringenin]	310 nM	506 nM	114%	360 nM	833 nM	110%	–	–	–	–	–	–	–	–
CCCOC(=O)c1ccc(O)cc1 [Propylparaben]	1300 nM	2210 nM	260%	997 nM	2160 nM	109%	–	–	–	–	–	–	–	–
Tonalide (AHTN)	–	–	–	–	–	–	–	–	3610 nM	206000 nM	0.28	1970 nM	6130 nM	0.46

Source: paper PMC3422259, “Additive Mixture Effects of Estrogenic Chemicals in Human Cell-Based Assays Can Be Influenced by Inclusion of Chemicals with Differing Effect Profiles” (PLoS ONE, 2012)
